{"source": "BindingDB's records for doi:10.1021/jm00403a015", "about": "(Washington State University, 1988)", "target": "Cytidine deaminase (Mus musculus) (UniProt P56389)", "sequence (P56389 whole entry, looked up)": "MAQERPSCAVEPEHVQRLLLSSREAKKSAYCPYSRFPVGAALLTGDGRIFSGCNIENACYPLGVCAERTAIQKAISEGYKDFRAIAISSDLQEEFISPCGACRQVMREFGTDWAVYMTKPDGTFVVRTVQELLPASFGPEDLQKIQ", "assay": "Inhibition of cytidine deaminase enzyme obtained from mouse kidney", "data": [{"compound": "[O-][S+]1C=CN(C2O[C@H](CO)[C@@H](O)[C@H]2O)C(O)=C1", "note": "(stereo partly specified)", "values": [{"measurement": "Ki", "value": 330, "unit": "µM"}]}]}
